Results reported in patent US20250296971A1, “GASTRIC INHIBITORY PEPTIDE RECEPTOR LIGANDS” (priority 2021, published 2025).
Where two headings read alike, the source gives them in different places. *1 amine or outer side, *2 acyl side, *3 side chain or, on linkers, in order; H or OH if unused. Where a SMILES comes first, the peptide text is derived from it. Bridges are numbered along the chain shown (N, C = ends). Side-chain parts run from the residue outwards. [ ]: non-standard residue; d: D form. The star is where a group is joined. NH(1-deoxy-D-glucityl) = OC[C@@H](O)[C@@H](O)[C@H](O)[C@@H](O)CN*; DOTA = O=C(O)CN1CCN(CC(=O)O)CCN(CC(=O)*)CCN(CC(=O)O)CC1; Trp(5-Cl) = N[C@@H](Cc1c[nH]c2ccc(Cl)cc12)C(=O)O; Pyridine(2,6-diCH2) = c1cc(C[*:1])nc(C[*:2])c1; mXylylene = c1cc(C[*:1])cc(C[*:2])c1; Glutaryl = O=C(CCCC(=O)[*:2])[*:1]; Hyp = O=C(O)[C@@H]1C[C@@H](O)CN1; X1 = O=C(CN1CCC(N[*:1])CC1)[*:2]; Api = NC1(C(=O)O)CCNCC1

Assays:
[1] = molecular target: T1, GIPR (CHO-K1-hGIPR cells) (Homo sapiens, UniProt P48546); assay: FACS binding assay
T1 construct: host or cells: CHO-K1
T1 sequence (P48546 22-466): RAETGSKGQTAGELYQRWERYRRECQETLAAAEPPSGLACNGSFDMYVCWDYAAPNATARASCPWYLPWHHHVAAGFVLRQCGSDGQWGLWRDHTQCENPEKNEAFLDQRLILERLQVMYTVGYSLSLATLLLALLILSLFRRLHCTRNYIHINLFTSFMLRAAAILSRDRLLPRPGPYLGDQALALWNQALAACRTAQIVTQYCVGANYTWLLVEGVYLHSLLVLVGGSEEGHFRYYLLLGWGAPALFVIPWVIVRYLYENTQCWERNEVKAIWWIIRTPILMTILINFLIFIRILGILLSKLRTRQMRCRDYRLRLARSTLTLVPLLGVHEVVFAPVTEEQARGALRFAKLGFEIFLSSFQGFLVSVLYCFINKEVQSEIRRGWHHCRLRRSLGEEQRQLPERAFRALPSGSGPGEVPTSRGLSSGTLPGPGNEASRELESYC
Method in brief: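 Read-out: flow cytometric median fluorescence intensity, APC/Cy5 channel, plotted vs peptide conc.; 4PL fit → EC50/pEC50 or IC50/pIC50. Cells: CHO-K1-hGIPR, Accutase-detached, 500.000/mL in PBS + 1% FCS. Detection: APC-streptavidin 1 μg/mL, 30 min, on ice.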

[2] = molecular target: Recombinant soluble human NEP (Homo sapiens, UniProt P08473); assay: Proteolytic stability assay against NEP; conditions: NEP 100 ng/mL, compound 10 μM, 37° C., % intact compound remaining
Sequence of Recombinant soluble human NEP (P08473 52-750 limits assumed): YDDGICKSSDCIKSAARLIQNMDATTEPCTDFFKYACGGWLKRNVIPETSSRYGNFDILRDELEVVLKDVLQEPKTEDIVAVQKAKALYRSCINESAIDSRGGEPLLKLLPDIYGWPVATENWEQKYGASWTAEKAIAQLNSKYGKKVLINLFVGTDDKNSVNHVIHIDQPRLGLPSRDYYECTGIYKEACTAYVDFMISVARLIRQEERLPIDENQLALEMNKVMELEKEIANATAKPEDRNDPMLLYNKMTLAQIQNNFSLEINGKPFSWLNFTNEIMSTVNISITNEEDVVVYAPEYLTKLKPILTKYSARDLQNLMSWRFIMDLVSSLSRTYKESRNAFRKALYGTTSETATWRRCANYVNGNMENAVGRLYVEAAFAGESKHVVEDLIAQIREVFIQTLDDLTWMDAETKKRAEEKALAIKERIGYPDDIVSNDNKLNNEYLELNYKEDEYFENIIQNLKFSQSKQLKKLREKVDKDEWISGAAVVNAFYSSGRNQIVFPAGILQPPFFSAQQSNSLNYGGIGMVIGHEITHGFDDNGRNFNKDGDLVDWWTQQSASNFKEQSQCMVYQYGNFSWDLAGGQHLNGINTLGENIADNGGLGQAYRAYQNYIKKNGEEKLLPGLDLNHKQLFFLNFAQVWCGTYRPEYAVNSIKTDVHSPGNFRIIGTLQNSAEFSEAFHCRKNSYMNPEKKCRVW

[3] = Plasma stability assay, human plasma; assay type: in vitro ADME; conditions: 37° C., % intact compound remaining after 4 h or 24 h
Procedure: (§1) In order to determine the stability of selected compounds of the invention in human and mouse plasma, a plasma stability assay was carried out. Such plasma stability assay measures degradation of compounds of the present invention in blood plasma. This is an important characteristic of a compound as compounds, with the exception of pro-drugs, which rapidly degrade in plasma, generally show poor in vivo efficacy. […] The stability is sufficient for the diagnostic, therapeutic and theragnostic use of these compounds according to the present invention.
(§2) The plasma stability samples were prepared by spiking 50 μL plasma aliquots (all K2EDTA) with 1 μL of a 0.5 mM compound stock solution in DMS0. After vortexing the samples were incubated in a Thermomixer at 37° C. for 0, 4 and 24 hours. After incubation the samples were stored on ice until further treatment. All samples were prepared in duplicates.
(§3) A suitable internal standard was added to each sample (1 μL of a 0.5 mM stock solution in DMSO). Protein precipitation was performed by addition of 250 μL of acetonitrile containing 1% trifluoroacetic acid. After incubation at room temperature for 30 min the precipitate was separated by centrifugation and 150 μL of the supernatant was diluted with 150 μL of 1% aqueous formic acid.
(§4) Additionally, recovery was determined by spiking a pure plasma sample that only contained the internal standard after treatment with a certain amount of the compound.
(§5) Carry-over was evaluated by analysis of a blank sample (20% acetonitrile) after the highest calibration sample.

[4] = Plasma stability assay, mouse plasma; assay type: in vitro ADME; conditions: 37° C., % intact compound remaining after 4 h or 24 h
Procedure: as §1, §2, §3, §4, §5

[5] = competition with 20 nM GIP-057, 4° C., 1 hour, read-out: pIC50 Category (converted)
[6] = competition with 20 nM GIP-057, 4° C. for 1 hour, read-out: pIC50 Category (converted)

| SMILES | IC50 [1, 5] | NEP stability category [2] | IC50 ([1]; pIC50 Category, competition with 20 nM GIP-057, 4° C., 1 hour) | Human plasma stability category [3] | Mouse plasma stability category [4] | IC50 [1, 6] |
| --- | --- | --- | --- | --- | --- | --- |
| CC[C@H](C)[C@@H]1NC(=O)[C@H](CC(C)C)NC(=O)C2(CCN(C(=O)CCCC(=O)NC[C@H](O)[C@@H](O)[C@H](O)[C@H](O)CO)CC2)NC(=O)[C@@H](NC(=O)[C@@H](CC(C)C)NC(=O)[C@H](CCC(=O)O)NC(=O)[C@@H]2C[C@@H](O)CN2C(=O)[C@H](Cc2c[nH]c3ccc(Cl)cc23)NC(=O)[C@H](Cc2c[nH]c3ccccc23)NC(=O)[C@H](CC(=O)O)NC(=O)CN2CCC(NC(=O)[C@@H](CCC(=O)NC[C@H](O)[C@@H](O)[C@H](O)[C@H](O)CO)NC(=O)CN3CCN(CC(=O)O)CCN(CC(=O)O)CCN(CC(=O)O)CC3)CC2)CSCc2cccc(n2)CSC[C@@H](C(=O)NC2CCN(CC(=O)N[C@H](CCC(=O)NC[C@H](O)[C@@H](O)[C@H](O)[C@H](O)CO)C(N)=O)CC2)NC1=O [GIP-003, DOTA-glu(AGLU)-APAc-Asp-Trp-5Clw-Hyp-Glu-leu-[Cys(2Lut)-Apc(AGLU-Glutar)-Leu-Ile-Cys]-APAc-glu(AGLU)-NH2] ({DOTA}-[dE](NH(1-deoxy-D-glucityl))[X1]DW[Trp(5-Cl)][Hyp]E[dL]C[Api]([Glutaryl-NH(1-deoxy-D-glucityl)])LIC[X1][dE](NH(1-deoxy-D-glucityl))-NH2; linker 9-13 via Pyridine(2,6-diCH2)) | < 10 nM | A (>80% intact after 24 hours) | – | – | – | – |
| CC[C@H](C)[C@@H]1NC(=O)[C@H](CC(C)C)NC(=O)C2(CCN(C(=O)CN3CCN(CC(=O)O)CCN(CC(=O)O)CCN(CC(=O)O)CC3)CC2)NC(=O)[C@@H](NC(=O)[C@@H](CC(C)C)NC(=O)[C@H](CCC(=O)O)NC(=O)[C@@H]2C[C@@H](O)CN2C(=O)[C@H](Cc2c[nH]c3ccc(Cl)cc23)NC(=O)[C@H](Cc2c[nH]c3ccccc23)NC(=O)[C@H](CC(=O)O)NC(=O)CN2CCC(NC(=O)CCOCCOCCOCCOCCOCCOCCOCCOCCOCCOCCOCCOCCOCCOCCOCCOCCOCCOCCOCCOCCOCCOCCOCCOCCOCCOCCOCCOCCOCCOCCOCCOCCOCCOCCOCCOCCOC)CC2)CSCc2cccc(n2)CSC[C@@H](C(=O)N[C@H](CCC(=O)NC[C@H](O)[C@@H](O)[C@H](O)[C@H](O)CO)C(N)=O)NC1=O [GIP-040, Me036PEG-APAc-Asp-Trp-5Clw-Hyp-Glu-leu-[Cys(2Lut)-Apc(DOTA)-Leu-Ile-Cys]-glu(AGLU)-NH2] | – | A (>80% intact after 24 hours) | 10 to 79.4 nM | – | – | – |
| CC[C@H](C)[C@@H]1NC(=O)[C@H](CC(C)C)NC(=O)[C@H](C)NC(=O)[C@@H](NC(=O)[C@H](CC(C)C)NC(=O)[C@H](CCC(=O)O)NC(=O)[C@@H]2CCCN2C(=O)[C@H](Cc2c[nH]c3ccccc23)NC(=O)[C@H](Cc2c[nH]c3ccccc23)NC(=O)[C@H](CC(=O)O)NC(=O)[C@H](Cc2ccc(O)cc2)NC(C)=O)CSCc2cccc(c2)CSC[C@@H](C(N)=O)NC1=O [GIP-240, Ac-Tyr-Asp-Trp-Trp-Pro-Glu-Leu-[Cys(3MeBn)-Ala-Leu-Ile-Cys]-NH2] (Ac-YDWWPELCALIC-NH2; linker 8-12 via mXylylene) | 10 to 79.4 nM | – | – | B (>80% intact after 4 hours) | B (>80% intact after 4 hours) | – |
| CC[C@H](C)[C@@H]1NC(=O)[C@H](CC(C)C)NC(=O)[C@H](CCC(N)=O)NC(=O)[C@@H](NC(=O)[C@H](CC(C)C)NC(=O)[C@H](CCC(=O)O)NC(=O)[C@@H]2CCCN2C(=O)[C@H](Cc2c[nH]c3ccccc23)NC(=O)[C@H](Cc2c[nH]c3ccccc23)NC(=O)[C@H](CC(=O)O)NC(=O)[C@H](Cc2ccc(O)cc2)NC(=O)[C@@H](N)CCSC)CSCc2cccc(c2)CSC[C@@H](C(N)=O)NC1=O [GIP-241] (H-MYDWWPELCQLIC-NH2; linker 9-13 via mXylylene) | 10 to 79.4 nM | – | – | B (>80% intact after 4 hours) | C (≥50% intact after 4 hours) | – |
| CC[C@H](C)[C@@H]1NC(=O)[C@H](CC(C)C)NC(=O)[C@H]([C@@H](C)O)NC(=O)[C@@H](NC(=O)[C@H](CC(C)C)NC(=O)[C@H](CCC(=O)O)NC(=O)[C@@H]2CCCN2C(=O)[C@H](Cc2c[nH]c3ccccc23)NC(=O)[C@H](Cc2c[nH]c3ccccc23)NC(=O)[C@H](CC(=O)O)NC(=O)[C@H](Cc2ccc(O)cc2)NC(=O)[C@@H](N)CCSC)CSCc2cccc(c2)CSC[C@@H](C(N)=O)NC1=O [GIP-242] (H-MYDWWPELCTLIC-NH2; linker 9-13 via mXylylene) | 10 to 79.4 nM | – | – | B (>80% intact after 4 hours) | C (≥50% intact after 4 hours) | – |
| CC[C@H](C)[C@@H]1NC(=O)[C@H](CC(C)C)NC(=O)[C@H](C)NC(=O)[C@@H](NC(=O)[C@H](CC(C)C)NC(=O)[C@@H](CCC(=O)O)NC(=O)[C@@H]2CCCN2C(=O)[C@H](Cc2c[nH]c3ccccc23)NC(=O)[C@H](Cc2c[nH]c3ccccc23)NC(=O)[C@H](CC(=O)O)NC(=O)[C@H](Cc2ccc(O)cc2)NC(=O)[C@@H](N)CCSC)CSCc2cccc(c2)CSC[C@@H](C(N)=O)NC1=O [GIP-245, H-Met-Tyr-Asp-Trp-Trp-Pro-glu-Leu-[Cys(3MeBn)-Ala-Leu-Ile-Cys]-NH2] (H-MYDWWP[dE]LCALIC-NH2; linker 9-13 via mXylylene) | – | – | – | B (>80% intact after 4 hours) | D (<50% intact after 4 hours) | 10 to 79.4 nM |
| CC[C@H](C)[C@@H]1NC(=O)[C@H](CC(C)C)NC(=O)[C@H](C)NC(=O)[C@@H](NC(=O)[C@H](CC(C)C)NC(=O)[C@H](CCC(=O)O)NC(=O)[C@@H]2CCCN2C(=O)[C@H](Cc2c[nH]c3ccccc23)NC(=O)[C@H](Cc2c[nH]c3ccccc23)NC(=O)[C@H](CC(=O)O)NC(=O)[C@@H](Cc2ccc(O)cc2)NC(=O)[C@@H](N)CCSC)CSCc2cccc(c2)CSC[C@@H](C(N)=O)NC1=O [GIP-246, H-Met-tyr-Asp-Trp-Trp-Pro-Glu-Leu-[Cys(3MeBn)-Ala-Leu-Ile-Cys]-NH2] (H-M[dY]DWWPELCALIC-NH2; linker 9-13 via mXylylene) | – | – | – | B (>80% intact after 4 hours) | B (>80% intact after 4 hours) | 10 to 79.4 nM |
| CC[C@H](C)[C@@H]1NC(=O)[C@H](CC(C)C)NC(=O)[C@H](C)NC(=O)[C@@H](NC(=O)[C@@H](CC(C)C)NC(=O)[C@H](CCC(=O)O)NC(=O)[C@@H]2CCCN2C(=O)[C@H](Cc2c[nH]c3ccccc23)NC(=O)[C@H](Cc2c[nH]c3ccccc23)NC(=O)[C@H](CC(=O)O)NC(=O)[C@H](Cc2ccc(O)cc2)NC(=O)[C@@H](N)CCSC)CSCc2cccc(c2)CSC[C@@H](C(N)=O)NC1=O [GIP-247, H-Met-Tyr-Asp-Trp-Trp-Pro-Glu-leu-[Cys(3MeBn)-Ala-Leu-Ile-Cys]-NH2] (H-MYDWWPE[dL]CALIC-NH2; linker 9-13 via mXylylene) | – | – | – | C (≥50% intact after 4 hours) | D (<50% intact after 4 hours) | 10 to 79.4 nM |
| CC[C@H](C)[C@@H]1NC(=O)[C@H](CC(C)C)NC(=O)[C@@H](C)NC(=O)[C@@H](NC(=O)[C@H](CC(C)C)NC(=O)[C@H](CCC(=O)O)NC(=O)[C@@H]2CCCN2C(=O)[C@H](Cc2c[nH]c3ccccc23)NC(=O)[C@H](Cc2c[nH]c3ccccc23)NC(=O)[C@H](CC(=O)O)NC(=O)[C@H](Cc2ccc(O)cc2)NC(=O)[C@@H](N)CCSC)CSCc2cccc(c2)CSC[C@@H](C(N)=O)NC1=O [GIP-248] (H-MYDWWPELC[dA]LIC-NH2; linker 9-13 via mXylylene) | – | – | – | B (>80% intact after 4 hours) | D (<50% intact after 4 hours) | 10 to 79.4 nM |
